Literature values, collected in patent US9290492B2, “Solid forms of antibiotics” (Laboratorios Senosiain S.A. de C.V., priority 2011, dated 2016).

SMILES	bioavailability (in vivo)	route of excretion (in vivo)	excreted as the unchanged drug (total) (of an oral or intravenous dose)	excreted as the unchanged drug in feces (of an oral or intravenous dose, feces)	excreted as the unchanged drug in urine (of an oral or intravenous dose, urine)
C[C@H]1COc2c(N3CCN(C)CC3)c(F)cc3c(=O)c(C(=O)O)cn1c23 [Levofloxacin]	99%	via urine	–	–	–
COc1c(N2C[C@@H]3CCCN[C@@H]3C2)c(F)cc2c(=O)c(C(=O)O)cn(C3CC3)c12 [moxifloxacin, Moxifloxacin]	–	via the liver	Approximately 45%	~25%	~20%
